This is an account of results in PubChem BioAssay AID256 (DTP/NCI, 2004).

Molecules are shown by their SMILES. “And” between values parts separate entries of the source, which are not always exact repeats. Equal entries are not always repeated. Inconclusive results and toxic doses are left out.

The experiment has as its system CD2F1 mice, L1210 leukemia ip, survival T/C. Put plainly: NCI In Vivo Anticancer Drug Screen. Data for tumor model L1210 Leukemia (intraperitoneal) in CD2F1 (CDF1) mice. To be noted: higher = longer survival. A digest of the protocol:
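Ratio T/C, where T is the treated-group value and C the vehicle-dosed control value, from mice implanted with a transplantable tumor.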

Setting [1] is: endpoint: mean survival time, dose: 100.0 mg/kg/injection, schedule: Q01DX009 (ip), vehicle: saline with Tween-80.
Setting [2] is: endpoint: mean survival time, dose: 200.0 mg/kg/injection, schedule: Q01DX009 (ip), vehicle: saline with Tween-80.
The mark [3] stands for this setting: endpoint: mean survival time, dose: 400.0 mg/kg/injection, schedule: Q01DX009 (ip), vehicle: saline with Tween-80.
Setting [4] is: endpoint: mean survival time, dose: 100.0 mg/kg/injection, schedule: Q01DX001 (ip), vehicle: saline with Tween-80.
[5] abbreviates: endpoint: mean survival time, dose: 200.0 mg/kg/injection, schedule: Q01DX001 (ip), vehicle: saline with Tween-80.
The mark [6] stands for this setting: endpoint: mean survival time, dose: 100.0 mg/kg/injection, schedule: Q04DX003 (ip), vehicle: saline.
Where [7] appears, read: endpoint: mean survival time, dose: 200.0 mg/kg/injection, schedule: Q04DX003 (ip), vehicle: saline.
Setting [8] is: endpoint: mean survival time, dose: 400.0 mg/kg/injection, schedule: Q04DX003 (ip), vehicle: saline.
Setting [9] is: endpoint: mean survival time, dose: 100.0 mg/kg/injection, schedule: Q04DX003 (ip), vehicle: saline with Tween-80.
[10] abbreviates: endpoint: mean survival time, dose: 200.0 mg/kg/injection, schedule: Q04DX003 (ip), vehicle: saline with Tween-80.
Where [11] appears, read: endpoint: mean survival time, dose: 400.0 mg/kg/injection, schedule: Q04DX003 (ip), vehicle: saline with Tween-80.
Setting [12] is: endpoint: mean survival time, dose: 100.0 mg/kg/injection, schedule: Q04DX002 (ip), vehicle: saline with Tween-80.
Where [13] appears, read: endpoint: mean survival time, dose: 200.0 mg/kg/injection, schedule: Q04DX002 (ip), vehicle: saline with Tween-80.
Setting [14] is: endpoint: mean survival time, dose: 400.0 mg/kg/injection, schedule: Q04DX002 (ip), vehicle: saline with Tween-80.

On to `Nc1ncnc2c1ncn2C1OC(COP(=O)(O)O)C(O)C1O.[NH-]C1CCCCC1[NH-].[Pt+2]` (stereo not drawn), for which the T/C reads like this: (endpoint: median survival time, dose: 3.12 mg/kg/injection, schedule: Q04DX003 (ip), vehicle: saline) 101 % of control; (endpoint: median survival time, dose: 6.25 mg/kg/injection, schedule: Q04DX003 (ip), vehicle: saline) 108 % of control; (endpoint: median survival time, dose: 12.5 mg/kg/injection, schedule: Q04DX003 (ip), vehicle: saline) 103 % of control; (endpoint: median survival time, dose: 25.0 mg/kg/injection, schedule: Q04DX003 (ip), vehicle: saline) 108 % of control; (endpoint: median survival time, dose: 50.0 mg/kg/injection, schedule: Q04DX003 (ip), vehicle: saline) 112 % of control; (endpoint: median survival time, dose: 100.0 mg/kg/injection, schedule: Q04DX003 (ip), vehicle: saline) 108 % of control. Besides, the T/C (endpoint: median survival time, dose: 200.0 mg/kg/injection, schedule: Q04DX003 (ip), vehicle: saline) was 122 % of control.

As for `COc1cccc2c1C(=O)c1c(O)c3c(c(O)c1C2=O)C[C@@](O)(/C(C)=N\NC=O)C[C@@H]3OC1CC(N)C(O)C(C)O1` (stereo partly drawn), the T/C (endpoint: mean survival time, dose: 0.65 mg/kg/injection, schedule: Q01DX009 (ip), vehicle: saline) was 113 % of control; the T/C (endpoint: mean survival time, dose: 1.0 mg/kg/injection, schedule: Q01DX009 (ip), vehicle: saline) was 106 % of control; the T/C (endpoint: mean survival time, dose: 1.08 mg/kg/injection, schedule: Q01DX009 (ip), vehicle: saline) was 118 % of control; the T/C (endpoint: mean survival time, dose: 1.8 mg/kg/injection, schedule: Q01DX009 (ip), vehicle: saline) was 114 % of control; the T/C (endpoint: mean survival time, dose: 2.0 mg/kg/injection, schedule: Q01DX009 (ip), vehicle: saline) is 124 % of control; the T/C (endpoint: mean survival time, dose: 3.0 mg/kg/injection, schedule: Q04DX003 (ip), vehicle: saline) was 123 % of control. The T/C by setting is: (endpoint: mean survival time, dose: 4.0 mg/kg/injection, schedule: Q01DX009 (ip), vehicle: saline) 123 % of control; (endpoint: mean survival time, dose: 5.0 mg/kg/injection, schedule: Q04DX003 (ip), vehicle: saline) 120 % of control; (endpoint: mean survival time, dose: 16.0 mg/kg/injection, schedule: Q01DX009 (ip), vehicle: saline) 161 % of control; (endpoint: mean survival time, dose: 22.2 mg/kg/injection, schedule: Q04DX003 (ip), vehicle: saline) 176 % of control.

As for `COc1ccc(OC)c(NC(=O)Nc2ccc(S(N)(=O)=O)cc2)c1`, the T/C is, setting by setting: under setting [1], 98 % of control; under setting [2], 93 % of control; under setting [3], 96 % of control.

As to `CC(=O)Oc1cc(N=[N+]=[N-])c(OC(C)=O)cc1C`, the T/C under setting [4] was 97 % of control and the T/C under setting [5] was 93 % of control.

For `CCOC(CNCc1cccc(OC)c1)OCC`, the T/C runs as follows: (endpoint: mean survival time, dose: 100.0 mg/kg/injection, schedule: Q01DX001 (ip), vehicle: saline) 100 % of control; (endpoint: mean survival time, dose: 200.0 mg/kg/injection, schedule: Q01DX001 (ip), vehicle: saline) 100 % of control.

In the case of `CS(=O)(=O)c1nccc2ccccc12`, the T/C is 90 % of control under setting [6], 88 % of control under setting [7] and 95 % of control under setting [8].

In the case of `[Cl][Pt+2][Cl].[NH-]c1ccc(S(N)(=O)=O)cc1.[NH-]c1ccc(S(N)(=O)=O)cc1`, the T/C (endpoint: mean survival time, dose: 25.0 mg/kg/injection, schedule: Q04DX003 (ip), vehicle: saline with Tween-80) is 90 % of control; the T/C (endpoint: mean survival time, dose: 50.0 mg/kg/injection, schedule: Q04DX003 (ip), vehicle: saline with Tween-80) was 98 % of control; the T/C under setting [9] is 94 % of control; the T/C under setting [10] is 102 % of control; the T/C under setting [11] is 102 % of control.

With `O=c1[nH][nH]c(=O)c2c1ncn2C1OC(CO)C(O)C1O` (stereo not drawn), the T/C is, setting by setting: (endpoint: mean survival time, dose: 12.5 mg/kg/injection, schedule: Q01DX005 (ip), vehicle: water) 101 % of control; (endpoint: mean survival time, dose: 25.0 mg/kg/injection, schedule: Q01DX005 (ip), vehicle: water) 100 % of control; (endpoint: mean survival time, dose: 50.0 mg/kg/injection, schedule: Q01DX005 (ip), vehicle: water) 101 % of control; (endpoint: mean survival time, dose: 100.0 mg/kg/injection, schedule: Q01DX005 (ip), vehicle: water) 101 % of control; (endpoint: mean survival time, dose: 200.0 mg/kg/injection, schedule: Q01DX005 (ip), vehicle: water) 100 % of control.

With `CC(CNC(=O)C12CC3CC(CC(C3)C1)C2)NC(=O)C12CC3CC(CC(C3)C1)C2` (stereo not drawn), the T/C is 101 % of control (endpoint: median survival time, dose: 12.5 mg/kg/injection, schedule: Q01DX005 (ip), vehicle: DMSO); 104 % of control (endpoint: median survival time, dose: 25.0 mg/kg/injection, schedule: Q01DX005 (ip), vehicle: DMSO); 101 % of control (endpoint: median survival time, dose: 50.0 mg/kg/injection, schedule: Q01DX005 (ip), vehicle: DMSO); 98 % of control (endpoint: median survival time, dose: 100.0 mg/kg/injection, schedule: Q01DX005 (ip), vehicle: DMSO); 101 % of control (endpoint: median survival time, dose: 200.0 mg/kg/injection, schedule: Q01DX005 (ip), vehicle: DMSO).

Regarding `CC1=C(CCC(=O)O)C(=O)C(CCC(=O)O)C(C)(C)C1` (stereo not drawn), the T/C under setting [12] was 96 % of control, the T/C under setting [13] was 100 % of control and the T/C under setting [14] was 100 % of control.

Take `CC1COCC(C)N1` (stereo not drawn): the T/C was 96 % of control under setting [6], 98 % of control under setting [7] and 96 % of control under setting [8].

As for `COc1ccc(OC)c(NC(=O)Nc2cc([N+](=O)[O-])ccc2Cl)c1`, the T/C is 91 % of control under setting [4]; 93 % of control and 95 % of control under setting [1]; 92 % of control and 95 % of control under setting [12]; 101 % of control under setting [9]; 88 % of control under setting [5]; 115 % of control and 98 % of control under setting [2]. Also, the T/C was 91 % of control and 96 % of control under setting [13]; 96 % of control under setting [10]; 100 % of control and 101 % of control under setting [3]; 96 % of control and 104 % of control under setting [14]; 96 % of control under setting [11].

Take `O=C1C2C3SC(c4nc5ccccc5cc43)C2C(=O)N1c1ccccc1` (stereo not drawn): the T/C by setting is: (endpoint: mean survival time, dose: 25.0 mg/kg/injection, schedule: Q01DX001 (ip), vehicle: saline with Tween-80) 92 % of control; (endpoint: mean survival time, dose: 50.0 mg/kg/injection, schedule: Q01DX001 (ip), vehicle: saline with Tween-80) 92 % of control.

For `CN(CCN1CCCCC1)C(=O)C(O)(c1ccccc1)c1ccccc1`, the T/C reads like this: (endpoint: mean survival time, dose: 75.0 mg/kg/injection, schedule: Q01DX001 (ip), vehicle: saline) 104 % of control; (endpoint: mean survival time, dose: 150.0 mg/kg/injection, schedule: Q01DX001 (ip), vehicle: saline) 98 % of control.

Regarding `COc1cc(C2=NCCc3cc4c(cc32)OCO4)cc(OC)c1OC`, the T/C reads like this: (endpoint: median survival time, dose: 6.25 mg/kg/injection, schedule: Q01DX009 (ip), vehicle: saline + alcohol) 106 % of control; (endpoint: median survival time, dose: 12.5 mg/kg/injection, schedule: Q01DX009 (ip), vehicle: saline + alcohol) 105 % of control; (endpoint: median survival time, dose: 12.5 mg/kg/injection, schedule: Q01DX009 (ip), vehicle: saline) 97 % of control and 102 % of control; (endpoint: median survival time, dose: 25.0 mg/kg/injection, schedule: Q01DX009 (ip), vehicle: saline + alcohol) 107 % of control; (endpoint: median survival time, dose: 25.0 mg/kg/injection, schedule: Q01DX009 (ip), vehicle: saline) 93 % of control and 104 % of control; (endpoint: median survival time, dose: 50.0 mg/kg/injection, schedule: Q01DX009 (ip), vehicle: saline + alcohol) 106 % of control. The T/C is 105 % of control (endpoint: median survival time, dose: 50.0 mg/kg/injection, schedule: Q01DX009 (ip), vehicle: saline); 109 % of control (endpoint: median survival time, dose: 100.0 mg/kg/injection, schedule: Q01DX009 (ip), vehicle: saline + alcohol); 105 % of control (endpoint: median survival time, dose: 100.0 mg/kg/injection, schedule: Q01DX009 (ip), vehicle: saline).

For `CCOc1ccc(CO)cc1`, the T/C was 104 % of control under setting [1], 98 % of control under setting [2] and 108 % of control under setting [3].

`COC1=CC(=O)C=C(OC(C)=O)C12Oc1c(Cl)c(C)c(Cl)c(O)c1C2=O` (stereo not drawn): the T/C (endpoint: mean survival time, dose: 6.25 mg/kg/injection, schedule: Q04DX002 (ip), vehicle: saline with Tween-80) is 105 % of control; the T/C (endpoint: mean survival time, dose: 12.5 mg/kg/injection, schedule: Q04DX002 (ip), vehicle: saline with Tween-80) was 98 % of control; the T/C (endpoint: mean survival time, dose: 25.0 mg/kg/injection, schedule: Q04DX002 (ip), vehicle: saline with Tween-80) was 102 % of control.
